In US20260001874A1 (priority 2022, published 2026):

Columns and labels:
Shiga toxin Stx-1 = type: cell-based, E. coli; conditions: read-out: EC50 in vitro Stx1
Shiga toxin Stx-2 = type: cell-based, E. coli; conditions: read-out: EC50 in vitro Stx2
VacV-ANCHOR = test: microbe, parasite or virus in culture; type: cell-based, cowpox virus; conditions: Orthopoxvirus vaccinia, HeLa, read-out: EC50 in vitro VACV
[1] = tested on: myxomatosis-derived virus MYXV-T1-ANCHOR; test: organism not typed; type: cell-based; conditions: RK-13, read-out: EC50 in vitro MYXV
RK13 cells = conditions: rabbit
in vitro [2] = conditions: human
[3] = mouse, in vivo
in vitro [4] = conditions: rabbit
[5] = Incubation with hepatic mouse microsomes, LC-MS-MS; conditions: 5 μM, 45 minutes, 37° C.
[6] = Pharmacokinetics in Lipiodol/castor oil (formulation B) or DMSO/Lipiodol/castor oil (formulation C), oral or subcutaneous; conditions: 33 mg/kg oral or subcutaneous, Lipiodol/castor oil 30%/70%
HeLa cells = conditions: human

Compound	EC50 (Shiga toxin Stx-1) [nM]	EC50 (Shiga toxin Stx-2) [nM]	EC50 (VacV-ANCHOR) [nM]	EC50 [1] [nM]	CC50 (in vitro [2]) [nM]	CC50 (in vitro [4]) [nM]	other results
Cc1nc(-c2ccc(C3N(C)c4ccc(F)cc4C(=O)N3c3ccccc3)s2)cs1 (stereo not shown) [Compound A]	52	60	37.8	74.5	> 50000		CC50 (RK13 cells): 3350 nM
Cc1nc(-c2ccc(C3N(C)c4ccc(F)cc4C(=O)N3c3c(O)cccc3O)s2)cs1 (stereo not shown) [Compound 1, 3-(2,6-dihydroxyphenyl)-6-fluoro-1-methyl-2-(5-(2-methylthiazol-4-yl)thiophen-2-yl)-2,3-dihydroquinazolin-4(1H)-one]	16	17	0.78	6	57700	18900	concentration in brain ([3]; female, BALB/c): 1700 nM; concentration in colon ([3]; female, BALB/c): 800 nM; concentration in kidneys ([3]; female, BALB/c): 400 nM; concentration in liver ([3]; female, BALB/c): 600 nM; concentration in lungs ([3]; female, BALB/c): 500 nM; concentration in plasma ([3]; female, BALB/c): 700 nM; concentration in small intestine ([3]; female, BALB/c): 2100 nM; concentration in brain (metabolite section) ([3]; female, BALB/c, sc, 33 mg/kg): 1500 nM; concentration in colon (metabolite section) ([3]; female, BALB/c, sc, 33 mg/kg): < 200 nM; concentration in kidney (metabolite section) ([3]; female, BALB/c, sc, 33 mg/kg): 500 nM; concentration in liver (metabolite section) ([3]; female, BALB/c, sc, 33 mg/kg): 1000 nM; concentration in lungs (metabolite section) ([3]; female, BALB/c, sc, 33 mg/kg): < 200 nM; metabolism by hepatic microsomes in the presence of NADPH [5]: slowed metabolism relative to the other compounds; pharmacokinetic properties (plasma exposure) compared with the other molecules tested [6]: best pharmacokinetic properties of all of the molecules tested
Cc1nc(-c2ccc(C3N(C)c4ccc(F)cc4C(=O)N3c3cc(O)cc(O)c3)s2)cs1 (stereo not shown) [Compound I]	> 30000		7300	9750	25900	20100	
Cc1nc(-c2ccc(C3N(C)c4ccc(F)cc4C(=O)N3c3ccccc3O)s2)cs1 (stereo not shown) [Compound B]	25	22	3.6	19	39900	14000	
Cc1nc(-c2ccc(C3N(C)c4ccc(F)cc4C(=O)N3c3cc(O)ccc3O)s2)cs1 (stereo not shown) [Compound G]	642		19	237	36300	12600	
Cc1nc(-c2ccc(C3N(C)c4ccc(F)cc4C(=O)N3c3ccc(O)cc3)s2)cs1 (stereo not shown) [Compound D]	483		628	5800			CC50 (HeLa cells): 20400 nM; CC50 (RK13 cells): 12900 nM
CN1c2ccc(F)cc2C(=O)N(c2c(O)cccc2O)C1c1ccc(-c2csc(CO)n2)s1 (stereo not shown) [metabolite]							presence in kidney, liver, colon, lungs and brain after treatment with compound 1 ([3]; sc, 33 mg/kg): identified in vivo
Cc1nc(-c2ccc(C3N(C)c4ccc(F)cc4C(=O)N3c3ccccc3N)s2)cs1 (stereo not shown) [Compound J]	21	27	1	1.44	> 50000		CC50 (RK13 cells): 7460 nM
Cc1nc(-c2ccc(C3N(C)c4ccc(F)cc4C(=O)N3c3ccc(O)cc3O)s2)cs1 (stereo not shown) [Compound F]	1500		27.3		3600		
Cc1nc(-c2ccc(C3N(C)c4ccc(F)cc4C(=O)N3c3cccc(O)c3O)s2)cs1 (stereo not shown) [Compound E]	32	35	4.8	11.5	8500	1300	
Cc1nc(-c2ccc(C3N(C)c4ccc(F)cc4C(=O)N3c3ccc(O)c(O)c3)s2)cs1 (stereo not shown) [Compound H]	2500						
Cc1nc(-c2ccc(C3N(C)c4ccc(F)cc4C(=O)N3c3cccc(O)c3)s2)cs1 (stereo not shown) [Compound C]	62	71	32.2	85.8	29200	3510	
